According to US20070004660A1, “Synergistic Modulation of Flt3 Kinase Using Alkylquinolines and Alkylquinazolines” (priority 2005, published 2007):

biological target: T1, wild-type FLT3 receptor (Homo sapiens, UniProt P36888); assay: Cell-based FLT3 receptor ELISA (FLT ligand-induced phosphorylation in Baf3 FLT3 cells); conditions: 100 ng/mL Flt ligand, uncertainty ±20%
T1 construct: host or cells: Baf3 (murine B cell lymphoma line), stably transfected
T1 sequence (P36888 27-993): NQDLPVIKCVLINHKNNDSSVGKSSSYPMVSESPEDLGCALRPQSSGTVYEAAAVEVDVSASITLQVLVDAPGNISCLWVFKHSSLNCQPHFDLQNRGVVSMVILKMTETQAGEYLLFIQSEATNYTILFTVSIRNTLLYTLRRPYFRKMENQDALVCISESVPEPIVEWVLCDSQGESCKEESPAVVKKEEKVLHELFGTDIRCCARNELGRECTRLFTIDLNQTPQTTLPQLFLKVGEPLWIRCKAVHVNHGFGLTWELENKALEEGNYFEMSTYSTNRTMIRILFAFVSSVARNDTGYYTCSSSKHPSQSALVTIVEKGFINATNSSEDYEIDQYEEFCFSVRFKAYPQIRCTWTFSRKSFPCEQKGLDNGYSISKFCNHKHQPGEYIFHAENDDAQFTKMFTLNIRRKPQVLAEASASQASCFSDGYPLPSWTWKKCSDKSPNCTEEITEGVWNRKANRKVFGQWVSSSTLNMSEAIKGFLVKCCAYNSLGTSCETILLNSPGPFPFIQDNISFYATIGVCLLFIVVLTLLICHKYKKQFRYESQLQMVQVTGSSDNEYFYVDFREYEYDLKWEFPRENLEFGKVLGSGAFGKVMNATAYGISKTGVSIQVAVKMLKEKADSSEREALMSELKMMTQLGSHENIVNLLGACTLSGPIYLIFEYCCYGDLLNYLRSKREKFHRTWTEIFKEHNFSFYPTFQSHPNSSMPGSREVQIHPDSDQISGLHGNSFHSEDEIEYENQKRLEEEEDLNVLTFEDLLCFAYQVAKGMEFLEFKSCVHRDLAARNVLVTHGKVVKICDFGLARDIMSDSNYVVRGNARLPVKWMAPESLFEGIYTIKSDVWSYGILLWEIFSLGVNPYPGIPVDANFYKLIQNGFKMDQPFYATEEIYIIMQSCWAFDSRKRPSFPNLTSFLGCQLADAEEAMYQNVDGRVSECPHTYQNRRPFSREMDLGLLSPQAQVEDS
Method: Specific cellular inhibition of FLT ligand-induced wild-type FLT3 phosphorylation was measured in the following manner: Baf3 FLT3 cells overexpressing the FLT3 receptor were obtained from Dr. Michael Heinrich (Oregon Health and Sciences University). The Baf3 FLT3 cell lines were created by stable transfection of parental Baf3 cells (a murine B cell lymphoma line dependent on the cytokine IL-3 for growth) with wild-type FLT3. Cells were selected for their ability to grow in the absence of IL-3 and in the presence of FLT3 ligand. Baf3 cells were maintained in RPMI 1640 with 10% FBS, penn/strep and 10 ng/ml FLT ligand at 37° C., 5% CO2. To measure direct inhibition of the wild-type FLT3 receptor activity and phosphorylation a sandwich ELISA method was developed similar to those developed for other RTKs (see Sadick, M D, Sliwkowski, M X, Nuijens, A, Bald, L, Chiang, N, Lofgren, J A, Wong W L T. Analysis of Heregulin-Induced ErbB2 Phosphorylation with a High-Throughput Kinase Receptor Activation Enzyme-Linked Immunsorbent Assay, Analytical Biochemistry. 1996; 235:207-214 and Baumann C A, Zeng L, Donatelli R R, Maroney A C. Development of a quantitative, high-throughput cell-based enzyme-linked immunosorbent assay for detection of colony-stimulating factor-1 receptor tyrosine kinase inhibitors. J Biochem Biophys Methods. 2004; 60:69-79.). 200 μL of Baf3FLT3 cells (1×10^6 /mL) were plated in 96 well dishes in RPMI 1640 with 0.5% serum and 0.01 ng/mL IL-3 for 16 hours prior to 1 hour compound or DMSO vehicle incubation. Cells were treated with 100 ng/mL Flt ligand (R&D Systems Cat# 308-FK) for 10 min. at 37° C. Cells were pelleted, washed and lysed in 100 ul lysis buffer (50 mM Hepes, 150 mM NaCl, 10% Glycerol, 1% Triton-X-100, 10 mM NaF, 1 mM EDTA, 1.5 mM MgCl2, 10 mM NaPyrophosphate) supplemented with phosphatase (Sigma Cat# P2850) and protease inhibitors (Sigma Cat #P8340). Lysates were cleared by centrifugation at 1000×g for 5 minutes at 4° C. Cell lysates were transferred to white wall 96 well microtiter (Costar #9018) plates coated with 50 ng/well anti-FLT3 antibody (Santa Cruz Cat# sc-480) and blocked with SeaBlock reagent (Pierce Cat#37527). Lysates were incubated at 4° C. for 2 hours. Plates were washed 3× with 200 ul/well PBS/0.1% Triton-X-100. Plates were then incubated with 1:8000 dilution of HRP-conjugated anti-phosphotyrosine antibody (Clone 4G10, Upstate Biotechnology Cat#16-105) for 1 hour at room temperature. Plates were washed 3× with 200 ul/well PBS/0.1% Triton-X-100. Signal detection with Super Signal Pico reagent (Pierce Cat#37070) was done according to manufacturer's instruction with a Berthold microplate luminometer. All data points are an average of triplicate samples. […] Inhibition and IC50 data analysis was done with GraphPad Prism using a non-linear regression fit with a multiparamater, sigmoidal dose-response (variable slope) equation.

Row | Structure (SMILES) | IC50
1 | CN1CCN(CCCOc2ccc3c(C4CCN(C(=O)Nc5ccc(N6CCOCC6)c(F)c5)CC4)ncnc3c2)CC1 [Example 81, 4-{7-[3-(4-Methyl-piperazin-1-yl)-propoxy]-quinazolin-4-yl}-piperidine-1-carboxylic acid (3-fluoro-4-morpholin-4-yl-phenyl)-amide] | 28 nM
2 | COc1cc2ncnc(C3CCN(C(=O)Nc4ccc(C5CCN(C(=O)OC(C)(C)C)CC5)cc4)CC3)c2cc1OC [Example 63, 4-(4-{[4-(6,7-Dimethoxy-quinazolin-4-yl)-piperidine-1-carbonyl]-amino}-phenyl)-piperidine-1-carboxylic acid tert-butyl ester] | 762 nM
3 | CC(C)Oc1ccc(NC(=O)N2CCC(c3ncnc4cc(N(C)C)ccc34)CC2)cc1 [Example 100, 4-(7-Dimethylamino-quinazolin-4-yl)-piperidine-1-carboxylic acid (4-isopropoxy-phenyl)-amide] | 8 nM
4 | COc1cc2ncnc(C3CCN(C(=O)Nc4ccccc4)CC3)c2cc1OC [Example 45, 4-(6,7-Dimethoxy-quinazolin-4-yl)-piperidine-1-carboxylic acid phenylamide] | > 3000 nM
5 | O=C(Nc1ccc(N2CCOCC2)cc1)N1CCC(c2ncnc3cc(OCCC4CCCCN4)ccc23)CC1 (stereo not shown) [Example 98, 4-[7-(2-Piperidin-2-yl-ethoxy)-quinazolin-4-yl]-piperidine-1-carboxylic acid (4-morpholin-4-yl-phenyl)-amide] | 86 nM
6 | O=C1CCCN1CCOc1ccc2c(C3CCN(C(=O)Nc4ccc(N5CCOCC5)cc4)CC3)ncnc2c1 [Example 85, 4-{7-[2-(2-Oxo-pyrrolidin-1-yl)-ethoxy]-quinazolin-4-yl}-piperidine-1-carboxylic acid (4-morpholin-4-yl-phenyl)-amide] | 75 nM
7 | CCCCc1ccc(NC(=O)N2CCC(c3ncnc4cc(OC)c(OC)cc34)CC2)cc1 [Example 43, 4-(6,7-Dimethoxy-quinazolin-4-yl)-piperidine-1-carboxylic acid (4-butyl-phenyl)-amide] | 59 nM
8 | CC(=O)N1CCN(CCOc2ccc3c(C4CCN(C(=O)Nc5ccc(N6CCOCC6)cc5)CC4)ncnc3c2)CC1 [Example 97, 4-{7-[2-(4-Acetyl-piperazin-1-yl)-ethoxy]-quinazolin-4-yl}-piperidine-1-carboxylic acid (4-morpholin-4-yl-phenyl)-amide] | 36 nM
9 | CC(=O)N1CCN(CCCOc2ccc3c(C4CCN(C(=O)Nc5ccc(N6CCOCC6)cc5)CC4)ncnc3c2)CC1 [Example 117, 4-{7-[3-(4-Acetyl-piperazin-1-yl)-propoxy]-quinazolin-4-yl}-piperidine-1-carboxylic acid (4-morpholin-4-yl-phenyl)-amide] | 88 nM
10 | COc1cc2ncnc(C3CCN(C(=O)Nc4ccc(C(C)O)cc4)CC3)c2cc1OC (stereo not shown) [Example 55, 4-(6,7-Dimethoxy-quinazolin-4-yl)-piperidine-1-carboxylic acid [4-(1-hydroxy-ethyl)-phenyl]-amide] | 1000 nM
11 | CN1CCC(COc2ccc3c(C4CCN(C(=O)Nc5ccc(N6CCOCC6)cc5)CC4)ncnc3c2)CC1 [Example 94, 4-[7-(1-Methyl-piperidin-4-ylmethoxy)-quinazolin-4-yl]-piperidine-1-carboxylic acid (4-morpholin-4-yl-phenyl)-amide] | 11 nM
12 | CC(C)Oc1ccc(NC(=O)N2CCC(c3ncnc4cc(OCCN5CCOC5=O)ccc34)CC2)cc1 [Example 79, 4-{7-[2-(2-Oxo-oxazolidin-3-yl)-ethoxy]-quinazolin-4-yl}-piperidine-1-carboxylic acid (4-isopropoxy-phenyl)-amide] | 17 nM
13 | COc1cc2ncnc(C3CCN(CC(=O)Nc4ccc(C(C)C)cc4)CC3)c2cc1OC [Example 9, 2-[4-(6,7-Dimethoxy-quinazolin-4-yl)-piperidin-1-yl]-N-(4-isopropyl-phenyl)-acetamide] | 7 nM
